System: C. elegans expressing wild-type human SOD-1 in the body wall muscle
Assay: C. elegans lifespan assay, wild-type SOD-1 strain
Type: in vivo, Caenorhabditis elegans
Experimental: Tacrolimus was tested in a number of disease models using the nematode worm, Caenorhabditis elegans, in which aggregate-prone proteins associated with neurodegenerative diseases are expressed in certain cell types. The effect of tacrolimus was determined by measuring the lifespan of worms in the presence and absence of tacrolimus, using the following general methodology. All of the worms tested using these assays also contained, in addition to the transgene expressing the disease-related protein, a mutation in the bus-5 gene which confers drug-sensitivity.
C. elegans cultures were synchronised by incubating an asynchronous culture in basic sodium hypochlorite solution to kill everything but the bleach-resistant mature eggs. […] From this point on, each ageing population was inspected at regular intervals (e.g. daily) and viability assessed by counting the number of dead worms.
The cumulative number of dead worms for each population was used to generate a survival/viability plot to determine chronological lifespan (CLS). Survival was analysed using the Kaplan-Meier log-rank survival analysis method, using the Online Application for Survival (OASIS; see http://sbi.postech.ac.kr/oasis). […]
The effect of tacrolimus on C. elegans expressing wild-type or mutant human SOD-1 in the body wall muscle was determined. […]

C=CC[C@@H]1/C=C(\C)C[C@H](C)C[C@H](OC)[C@H]2O[C@@](O)(C(=O)C(=O)N3CCCC[C@H]3C(=O)O[C@H](/C(C)=C/[C@@H]3CC[C@@H](O)[C@H](OC)C3)[C@H](C)[C@@H](O)CC1=O)[C@H](C)C[C@@H]2OC [tacrolimus, Tacrolimus]
lifespan (10 μg/ml in NGM agar, p<0.05 DMSO vs. Tacrolimus): significant increase in lifespan
increase in lifespan when bec-1 knocked down by RNAi (bec-1 RNAi, p>0.05 vs. bec-1 RNAi DMSO): virtually abolished
